The values that follow come from US9340538B2, “Dihydropyrimidine compounds and their application in pharmaceuticals” (SUNSHINE LAKE PHARMA CO., LTD., priority 2013, dated 2016).

What is called Cmax is the maximum level reached in the sampled fluid or tissue. Broadly, the Tmax is the time from dosing to the highest level. As a reminder, the clearance is a measure of how efficiently the substance is removed, as volume per time. A lower clearance goes with a low capacity for elimination. By half-life is commonly meant the time in which the quantity being followed falls by half. A low value points to fast loss. A word on the AUC(0-t): it is the area under the concentration-time curve up to a stated or last time point. High values mean more exposure, low ones less exposure. By AUC(0-inf) is commonly meant the area under the concentration-time curve extrapolated to infinity. Broadly, the bioavailability is the share of a dose that reaches the circulation, judged against a reference dose that is usually intravenous.

Read-outs that look alike come from different tables or passages of the source.

One data set has as its system HBV. Kind of data set: In-vitro anti-HBV activity in stable HBV-producing cell line (HepG2.2.15), HBV DNA in culture fluid by qPCR. In kind it is cell-based. The settings on record: Hepatitis B virus, 168 h; 500 nmol final concentration, HepG2.2.15 cells, HBV DNA in culture media on day 7 post seeding, vs DMSO control; read-out: HBV (% Inh.) (500 nmol). As to the method: In-Vitro Anti-HBV Activity of Compounds in Stable HBV-Producing Cell Line (HepG2.2.15)
HBV DNA contents in cell culture fluid were detected by the qPCR-based assay and percents of HBV inhibition by compounds (% Inh) were calculated. Specific procedures are as follows:
HepG2.2.15 cells were seeded into each well of 96-well plates, 40,000 cells per well. Cells were treated with cell culture medium containing compounds 24 hours after cell seeding. Each compound to detected percent inhibition was in duplicate and the final concentration of each compound was 500 nmol in each well. The compound-containing mediums were refreshed on day 4 post cell seeding. Culture media were collected from the HepG2.2.15 plates on day 7 post cell seeding followed by HBV DNA extraction.
HBV DNA extraction: using QIAamp 96 DNA Blood Kit (QIAGEN 51161).
PCR for quantification: PCR mix was prepared according to PCR system; PCR mix was dispensed to 384-well optical reaction plates (special for quantification); The standard diluted proportionally was added; The sample was added; The plates were sealed with optical adhesive film; PCR system was performed according to programs.
Percent of HBV inhibition of DNA replication by compound was calculated using the following equation: % Inh.=[1-HBV DNA quantity of sample/HBV DNA quantity of DMSO control]*100. II. Assay Results
A general note: Quantitative PCR measures a nucleic acid by following its amplification.

Data set [1] is described as follows: Test compounds' PK assay in ICR mice. It is filed as in vivo. The settings on record: mouse, plasma; for AUC(0-t): AUC in 0-24 hours; for AUC(0-inf): AUC in 0 hour to infinite time; for Vd: read-out: Vss; for bioavailability: read-out: F (absolute bioavailability). As to the method:
The test compounds were poured into ICR mice stomach through mouth with 10 mg/kg or administered 2 mg/kg or 10 mg/kg to ICR mice by tail-intravenous injection. Blood sample of orbital vein was taken at 0.083, 0.25, 0.5, 1, 2, 4, 6, 8 and 24 hours after administration, and collected in anticoagulation tube added with EDTA-K2. The test compounds were extracted from plasma samples and chromatographed on a tandem mass spectrometer. Quantitation was performed using multiple reaction monitoring (MRM). Pharmacokinetic parameters were calculated using WinNonlin 6.1 software with non compartment model.

As to `CCOC(=O)C1=C(CN2CCOC(CCC(=O)O)C2)NC(c2nccs2)=NC1c1ccc(F)cc1Br` (centres unmarked) [Example 129, 3-(4-((6-(2-bromo-4-fluorophenyl)-5-(ethoxycarbonyl)-2-(thiazol-2-yl)-3,6-dihydropyrimidin-4-yl)methyl)morpholin-2-yl)propanoic acid], the inhibition at 0.5 µM with HBV is 92%. Also, in data set [1] (iv, 2 mg/kg), the concentration peaked (Cmax) at 3860 ng/mL, the Tmax stood at 0.08 h, the clearance was 20.3 mL/min/kg and the half-life is 2.42 h. In addition, in data set [1] (iv, 2 mg/kg), the AUC(0-t) stood at 1630 ng·h/mL, the AUC(0-inf) amounted to 1640 ng·h/mL and the Vd was found to be 0.9 L/kg. In data set [1] (po, 10 mg/kg), the highest level (Cmax) was 8610 ng/mL, the Tmax was found to be 0.08 h, the half-life is 6.62 h and the AUC(0-t) came to 5330 ng·h/mL. In addition, in data set [1] (po, 10 mg/kg), the AUC(0-inf) was determined as 5350 ng·h/mL and the bioavailability was 65.2%.

Turning to `CCOC(=O)C1=C(CN2CCOC(CC(=O)O)C2)NC(c2nccs2)=NC1c1ccc(F)cc1Br` (centres unmarked) [Example 74, 2-(4-((6-(2-bromo-4-fluorophenyl)-5-(ethoxycarbonyl)-2-(thiazol-2-yl)-3,6-dihydropyrimidin-4-yl)methyl)morpholin-2-yl)acetic acid], the inhibition at 0.5 µM with HBV came out at 91.7%. For the same molecule, in data set [1] (iv, 10 mg/kg), the clearance was 15.5 mL/min/kg, the half-life is 1.02 h, the AUC(0-t) came out at 10600 ng·h/mL and the AUC(0-inf) is 11200 ng·h/mL. For the same molecule, the Vd in data set [1] (iv, 10 mg/kg) amounted to 0.82 L/kg. Also, in data set [1] (po, 10 mg/kg), the peak concentration (Cmax) turned out to be 7330 ng/mL, the time to peak (Tmax) came to 0.25 h, the half-life is 1.18 h and the AUC(0-t) was determined as 7890 ng·h/mL. In data set [1] (po, 10 mg/kg), the AUC(0-inf) was 8160 ng·h/mL and the bioavailability was 74.2%.
